Source: PubChem BioAssay AID248 (DTP/NCI, 2004)
“And” between values parts separate entries of the source, which are not always exact repeats. Identical values can stand only once. Inconclusive results and toxic doses are left out. No stated cut-off is given here; in the data, active means T/C of 150% or more; inactive means T/C below 125%.

Tested on: L1210 leukemia ip in BDF1 mice, survival T/C
Assay: NCI In Vivo Anticancer Drug Screen. Data for tumor model L1210 Leukemia (intraperitoneal) in B6D2F1 (BDF1) mice
Conditions: endpoint: mean survival time, higher = longer survival
Summary of the method: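 Read-out is survival time, reported as the treated-group measurement over the vehicle-control measurement.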

[1] = dose: 100.0 mg/kg/injection, schedule: Q04DX002 (ip), vehicle: saline with Tween-80
[2] = dose: 200.0 mg/kg/injection, schedule: Q04DX002 (ip), vehicle: saline with Tween-80
[3] = dose: 400.0 mg/kg/injection, schedule: Q04DX002 (ip), vehicle: saline with Tween-80
[4] = dose: 50.0 mg/kg/injection, schedule: Q01DX009 (ip), vehicle: saline
[5] = dose: 100.0 mg/kg/injection, schedule: Q01DX009 (ip), vehicle: saline
[6] = dose: 100.0 mg/kg/injection, schedule: Q04DX003 (ip), vehicle: saline
[7] = dose: 200.0 mg/kg/injection, schedule: Q04DX003 (ip), vehicle: saline
[8] = dose: 100.0 mg/kg/injection, schedule: Q04DX002 (ip), vehicle: saline
[9] = dose: 100.0 mg/kg/injection, schedule: Q01DX009 (ip), vehicle: Klucel (hydroxypropylcellulose) (HPC)
[10] = dose: 200.0 mg/kg/injection, schedule: Q01DX009 (ip), vehicle: Klucel (hydroxypropylcellulose) (HPC)
[11] = dose: 100.0 mg/kg/injection, schedule: Q01DX001 (ip), vehicle: carboxymethylcellulose (CMC)
[12] = dose: 200.0 mg/kg/injection, schedule: Q01DX001 (ip), vehicle: carboxymethylcellulose (CMC)
[13] = dose: 400.0 mg/kg/injection, schedule: Q01DX001 (ip), vehicle: carboxymethylcellulose (CMC)
[14] = dose: 100.0 mg/kg/injection, schedule: Q04DX002 (ip), vehicle: Klucel (hydroxypropylcellulose) (HPC)
[15] = dose: 200.0 mg/kg/injection, schedule: Q01DX009 (ip), vehicle: saline
[16] = dose: 200.0 mg/kg/injection, schedule: Q04DX002 (ip), vehicle: Klucel (hydroxypropylcellulose) (HPC)
[17] = dose: 400.0 mg/kg/injection, schedule: Q01DX009 (ip), vehicle: saline
[18] = dose: 400.0 mg/kg/injection, schedule: Q04DX002 (ip), vehicle: Klucel (hydroxypropylcellulose) (HPC)
[19] = dose: 5.0 mg/kg/injection, schedule: Q04DX003 (ip), vehicle: saline
[20] = dose: 10.0 mg/kg/injection, schedule: Q04DX003 (ip), vehicle: saline
[21] = dose: 100.0 mg/kg/injection, schedule: Q04DX003 (ip), vehicle: saline with Tween-80
[22] = dose: 200.0 mg/kg/injection, schedule: Q04DX003 (ip), vehicle: saline with Tween-80
[23] = dose: 400.0 mg/kg/injection, schedule: Q04DX003 (ip), vehicle: saline with Tween-80
[24] = dose: 100.0 mg/kg/injection, schedule: Q01DX001 (ip), vehicle: saline
[25] = dose: 200.0 mg/kg/injection, schedule: Q01DX001 (ip), vehicle: saline
[26] = dose: 400.0 mg/kg/injection, schedule: Q01DX001 (ip), vehicle: saline
[27] = dose: 50.0 mg/kg/injection, schedule: Q01DX009 (ip), vehicle: Klucel (hydroxypropylcellulose) (HPC)
[28] = dose: 75.0 mg/kg/injection, schedule: Q01DX001 (ip), vehicle: saline
[29] = dose: 100.0 mg/kg/injection, schedule: Q04DX003 (ip), vehicle: Klucel (hydroxypropylcellulose) (HPC)
[30] = dose: 200.0 mg/kg/injection, schedule: Q04DX003 (ip), vehicle: Klucel (hydroxypropylcellulose) (HPC)
[31] = dose: 400.0 mg/kg/injection, schedule: Q04DX003 (ip), vehicle: Klucel (hydroxypropylcellulose) (HPC)
[32] = dose: 400.0 mg/kg/injection, schedule: Q01DX009 (ip), vehicle: Klucel (hydroxypropylcellulose) (HPC)
[33] = dose: 50.0 mg/kg/injection, schedule: Q01DX001 (ip), vehicle: saline
[34] = dose: 100.0 mg/kg/injection, schedule: Q01DX009 (ip), vehicle: saline with Tween-80
[35] = dose: 200.0 mg/kg/injection, schedule: Q01DX009 (ip), vehicle: saline with Tween-80

Measured: T/C

CC(C)(C)C(=O)[CH-]C(=O)C(C)(C)C.CC(C)(C)C(=O)[CH-]C(=O)C(C)(C)C.CC(C)(C)C(=O)[CH-]C(=O)C(C)(C)C.[Er+3]
inactive: dose: 50.0 mg/kg/injection, schedule: Q04DX002 (ip), vehicle: saline with Tween-80 90 % of control | [1] 90 % of control | [2] 90 % of control | [3] 90 % of control

CC(C)(C)CC(C)(C)c1ccc(OCCO)cc1
inactive: [4] 97 % of control | [5] 91 % of control | [6] 107 % of control | [7] 101 % of control

CCCCCCCCC(=O)N1CCN(C)CC1
inactive: [8] 103 % of control

NS(=O)(=O)c1ccc(NC(=O)Nc2ccccc2)cc1
inactive: [9] 92 % of control | [10] 97 % of control

CC(=O)Nc1ccc(/C=N/NC(=O)C(O)(c2ccccc2)c2ccccc2)cc1
inactive: [11] 97 % of control | [12] 103 % of control | [13] 97 % of control

C#CC1(O)CC[C@H]2[C@@H]3CCC4=CCCC[C@@H]4[C@H]3CC[C@@]21C (some centres undefined)
inactive: [11] 103 % of control | [12] 96 % of control | [13] 91 % of control

CC(C)(C)S(=O)(=O)CCS(=O)(=O)C(C)(C)C
inactive: [5] 100 % of control | [14] 104 % of control | [1] 97 % of control | [15] 100 % of control | [16] 97 % of control | [2] 94 % of control | [17] 107 % of control | [18] 104 % of control | [3] 90 % of control

CCCCCCCCCCCCC[n+]1cccc(C#N)c1
inactive: [19] 100 % of control | dose: 10.0 mg/kg/injection, schedule: Q01DX001 (ip), vehicle: saline 94 % of control | [20] 96 % of control | dose: 20.0 mg/kg/injection, schedule: Q01DX001 (ip), vehicle: saline 103 % of control | dose: 20.0 mg/kg/injection, schedule: Q04DX003 (ip), vehicle: saline 96 % of control

Cc1ccc(S(=O)(=O)OCC2C3CCC(C3=O)C2COS(=O)(=O)c2ccc(C)cc2)cc1 (centres undefined)
inactive: dose: 50.0 mg/kg/injection, schedule: Q04DX003 (ip), vehicle: saline with Tween-80 98 % of control | [21] 96 % of control and 106 % of control | [22] 98 % of control | [23] 86 % of control

c1ccc2c(c1)NC(SSC1Nc3ccccc3S1)S2 (centres undefined)
inactive: [24] 94 % of control | [25] 88 % of control | [26] 94 % of control

COc1ccccc1N=Cc1ccccc1O.[Co]
inactive: dose: 100.0 mg/kg/injection, schedule: Q01DX001 (ip), vehicle: other 94 % of control | dose: 200.0 mg/kg/injection, schedule: Q01DX001 (ip), vehicle: other 94 % of control | dose: 400.0 mg/kg/injection, schedule: Q01DX001 (ip), vehicle: other 93 % of control

Clc1nc(Cl)c2c(n1)NCCN2
inactive: [27] 106 % of control | [9] 103 % of control

COc1cccc(CCC(=O)c2ccccc2)c1
inactive: [14] 106 % of control | [16] 90 % of control | [18] 94 % of control

O=[N+]([O-])c1ccc2c(c1)[As](=O)(O)c1cc([N+](=O)[O-])ccc1-2
inactive: [28] 120 % of control

OCCN(CCO)CN(CO)c1nc(N(CO)CN(CCO)CCO)nc(N(CO)CN(CCO)CCO)n1
inactive: [5] 100 % of control | [6] 101 % of control | [15] 109 % of control | [7] 101 % of control | [17] 109 % of control | dose: 400.0 mg/kg/injection, schedule: Q04DX003 (ip), vehicle: saline 91 % of control

Cn1c(=O)[nH]cc(C(=O)O)c1=O
inactive: [29] 91 % of control | [30] 92 % of control | [31] 91 % of control

Cc1cccc(C)c1N1C(=O)CC(Sc2ccccc2N)C1=O (centres undefined)
inactive: [9] 92 % of control | [29] 98 % of control | [10] 88 % of control | [30] 95 % of control | [32] 88 % of control | [31] 93 % of control

C=C(C)C1(CCCCC)C(=O)NC(=S)NC1=O
inactive: [28] 100 % of control | dose: 150.0 mg/kg/injection, schedule: Q01DX001 (ip), vehicle: saline 102 % of control | dose: 300.0 mg/kg/injection, schedule: Q01DX001 (ip), vehicle: saline 95 % of control

OCC1CC(n2cnc3c(=S)nc[nH]c32)C(O)C1O (centres undefined)
inactive: [33] 96 % of control | [24] 96 % of control | [25] 96 % of control

CC1(C(=O)O)OCCO1
inactive: [34] 94 % of control | [35] 90 % of control

O=C(/C=C\c1ccc([N+](=O)[O-])cc1)NCCCCNC(=O)/C=C/c1ccc([N+](=O)[O-])cc1
inactive: [24] 96 % of control

CCOC(=O)c1nc2cc(C)c(C)cc2[nH]c1=O
inactive: [21] 92 % of control | [22] 99 % of control | [23] 93 % of control

COc1cccc[n+]1CC(=O)c1ccccc1
inactive: [27] 95 % of control | [9] 98 % of control | [10] 95 % of control

BrC1CC2OC2C2OC12 (centres undefined)
inactive: dose: 25.0 mg/kg/injection, schedule: Q04DX002 (ip), vehicle: saline 108 % of control | dose: 50.0 mg/kg/injection, schedule: Q04DX002 (ip), vehicle: saline 105 % of control | [24] 100 % of control | [8] 102 % of control

[CH3][Pb]([CH3])([CH3])[NH]C#N
inactive: [19] 101 % of control | [20] 86 % of control

COc1ccc(C(C#N)CC(=O)c2ccc(OC)c(OCc3ccccc3)c2)cc1OC (centres undefined)
inactive: dose: 25.0 mg/kg/injection, schedule: Q01DX009 (ip), vehicle: saline 96 % of control | [4] 102 % of control | [5] 101 % of control | [15] 101 % of control

COC(=O)c1ccccc1NC(=O)Nc1ccccc1C(F)(F)F
inactive: [34] 89 % of control | [35] 89 % of control | dose: 400.0 mg/kg/injection, schedule: Q01DX009 (ip), vehicle: saline with Tween-80 86 % of control

O=C(Cc1cccc2ccccc12)NO
inactive: [9] 95 % of control | [29] 95 % of control | [10] 102 % of control | [30] 95 % of control | [32] 101 % of control | [31] 104 % of control

CC(=O)OCCN1C(=O)c2ccccc2C1=O
inactive: [29] 104 % of control | [30] 117 % of control | [31] 101 % of control

CCCCN(CCCC)CCCNC(=S)Nc1ccccc1
inactive: [9] 94 % of control | [10] 100 % of control

O=C(O)C1(NO)CCCC1
inactive: [33] 102 % of control | [24] 121 % of control | [26] 110 % of control
